Structures can show the parent of a compound that is named as a salt.
Biological target: adenosine A2A receptor (Homo sapiens, UniProt P29274)
Experiment: Adenosine A2A receptor agonist assay (method of Murphree et al.)
Type: binding
Settings: method described by Murphree et al., Mol Pharmacol, Vol. 61, pp. 455-462 (2002)
Text: Compounds of formula (I) and their pharmaceutically acceptable salts are useful as pharmaceuticals. In particular, they activate the adenosine A2A receptor, i.e., they act as A2A receptor agonists.

Sequence of adenosine A2A receptor (P29274 whole entry): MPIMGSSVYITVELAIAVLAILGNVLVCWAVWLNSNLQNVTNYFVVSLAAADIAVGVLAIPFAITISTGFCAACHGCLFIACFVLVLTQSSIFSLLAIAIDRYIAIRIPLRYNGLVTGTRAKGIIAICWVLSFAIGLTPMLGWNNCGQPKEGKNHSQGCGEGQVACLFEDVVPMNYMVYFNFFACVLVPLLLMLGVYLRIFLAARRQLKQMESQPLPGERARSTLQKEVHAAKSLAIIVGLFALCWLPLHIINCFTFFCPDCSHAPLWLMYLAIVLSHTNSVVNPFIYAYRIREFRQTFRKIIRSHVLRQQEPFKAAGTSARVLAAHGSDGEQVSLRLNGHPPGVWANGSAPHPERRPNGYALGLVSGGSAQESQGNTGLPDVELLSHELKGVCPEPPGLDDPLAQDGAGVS

Structure (SMILES)	Ki [nM]
O=C(N[C@@H]1CCNC1)N[C@@H]1CCN(c2nc(NCC(c3ccccc3)c3ccccc3)c3ncn([C@@H]4O[C@H](CO)[C@@H](O)[C@H]4O)c3n2)C1 [Example 11, 1-{(R)-1-[9-(2R,3R,4S,5R)-3,4-Dihydroxy-5-hydroxymethyl-tetrahydro-furan-2-yl)-6-(2,2-diphenyl-ethylamino)-9H-purin-2-yl]-pyrrolidin-3-yl}-3-(R)-pyrrolidin-3-yl-urea trifluoroacetate]	12
CCn1nnc([C@H]2O[C@@H](n3cnc4c(NCC(c5ccc(O)cc5)c5ccc(O)cc5)nc(N5CC[C@@H](NC(=O)c6ccc(N7CCOCC7)nc6)C5)nc43)[C@H](O)[C@@H]2O)n1 [Example 77, N-((R)-1-{6-[2,2-bis-(4-Hydroxy-phenyl)-ethylamino]-9-[(2R,3R,4S,5R)-5-(2-ethyl-2H-tetrazol-5-yl)-3,4-dihydroxy-tetrahydro-furan-2-yl]-9H-purin-2-yl}-pyrrolidin-3-yl)-6-morpholin-4-yl-nicotinamide trifluoroacetate]	6

Reference: patent US20090240045A1, “Organic Compounds” (Novartis AG, priority 2006, published 2009)
